Source: paper doi:10.1101/2021.03.02.433618v2 (biorxiv, 2021)
Where two headings read alike, the source gives them in different places.

Assays:
3CLpro [1] = target: T1, 3CLpro (Severe acute respiratory syndrome coronavirus 2, UniProt P0DTD1); assay: biochemical
3CLpro [2] = target: T1, 3CLpro; assay: biochemical; remark: listed apart in the source

Structure (SMILES) | IC50 (3CLpro [1]) [µM] | IC50 (3CLpro [2]) [µM]
O=c1cc(-c2ccc(O)c(-c3c(O)cc(O)c4c(=O)cc(-c5ccc(O)cc5)oc34)c2)oc2cc(O)cc(O)c12 [amentoflavone] | 143 ± 23 | 
O=c1cc(-c2ccc(O)c(O)c2)oc2cc(O)cc(O)c12 [luteolin] | 343 ± 77 | 
CC(=O)c1c(O)c(C)c(O)c(Cc2c(O)c3c(c(C(=O)/C=C/c4ccccc4)c2O)OC(C)(C)C=C3)c1O [rottlerin] |  | 37
